Measured values reported in patent publication US20190290623A1, “USE OF TIOTROPIUM BROMIDE TO PREVENT PULMONARY OXYGEN TOXICITY” (priority 2018, published 2019).

Assays:
[1] = system: swine exposed to 2.5 ATA hyperbaric oxygen for 5.5 hr; test: Experiment 2 deep exposure simulation: pulmonary capacity (pressure-volume loops); assay type: in vivo; details: 2.5 ATA O2 5.5 hr
Description: Experiment 2 is designed to evaluate the efficacy of tiotropium bromide pre-dive with respect to reducing decrements in pulmonary function due to PO2T following a 5.5 hour, 2.5 ATA hyperbaric oxygen exposure. This dive profile was selected because it caused the most significant pulmonary function deficits in humans with minimal risk of seizure due to CNS oxygen toxicity.
Pulmonary function testing: The swine had disposable prewired electrodes adhered to the dermis over the gluteal muscle and a train of four (TOF) stimulation was initiated to confirm proper placement and twitch using a DigiStim III Peripheral Nerve Stimulator (Neuro Technology Inc., Kerrville, Tex.). Atracurium besylate (50 mg, IV) (hospira, Lake Forest, Ill.) was injected into the ear vein catheter, and the swine was observed until cessation of muscle twitch with TOFs. The swine was then disconnected from the ventilator circuit, allowed to passively exhale, and connected to an O2 filled 3 L super syringe (Hamilton Company, Reno, Nev.) attached to a pressure gauge (OMEGA®, Norwalk, Conn.), and pneumotachometer (Harvard Apparatus, Holliston, Mass.). Oxygen was introduced in 100 ml increments every 3 seconds until a static pressure of 40 cm H2O was reached. The lungs were then deflated in 100 ml increments until a static pressure of −40 cm H2O. The swine was then reconnected to the ventilator and ventilated for 2 minutes before repeating the insufflation and exhalation maneuvers and measurements one more time. […] After the above measurements, swine received either nebulized Tiotropium (18 μg dissolved in saline) or an equal volume of 0.9% saline through the breathing circuit over the course of 15 minutes. The propofol infusion was then stopped, the animals were then monitored until a swallow reflex was observed then extubated. The swine were then transported to the hyperbaric chamber suite and allowed to recover until capable of standing.
Hyperbaric Exposures: Individual animals were then placed into a Plexiglas box (30 in.×42 in.×38 in., manufactured in-house) within a Multiple Large Animal Chamber (MLAC), which is a steel-hulled hyperbaric chamber (450-cubic ft. floodable volume and pressure tested to 1,230 feet of seawater [fsw] equivalent) (Bethlehem Steel Corp, Bethlehem Pa.). Pressure/depth was monitored by a CPG 2500 Digital Pressure Gauge (Mensor Corp., San Marcos, Tex.). Swine were dove in pairs with each treatment group represented. Swine box assignment was alternated with respect to treatment to avoid any effects associated with individual box environmental features. Animals were monitored via closed-circuit television to observe signs of distress related to middle ear barotrauma (e.g. head shaking, nystagmus) and seizure activity. Oxygen concentration was measured and recorded using a portable O2 analyzer (Teledyne Analytical Inst, City of Industry, Calif.). After positioning the animal inside the Plexiglas box, the MLAC was sealed and pressurized using air at the rate of I ATA/minute to a depth of 2.5 ATA. After 2.5 min at a bottom depth equivalent to 2.5 ATA, the breathing gas was switched to 100% O2 and maintained for 5.5 Hrs. After completing 5.5 Hrs on 100% O2, the inspired gas was switched back to air for 3 min. Then, the chamber was decompressed at 1 ATA/minute. Upon reaching surface the animal was transported to the surgical suite for post-dive ECG and pulmonary function measurements (identical to the pre-dive procedures). The animal was then euthanized via ear vein infusion of Euthasol (1.0-1.5 ml/10 lbs body weight) followed by a saline flush (5 cc).
Pulmonary function data analysis: Pressure and flow data from the pressure gauge and pneumotachometer respectively were collected by a Dell Laptop (Round Rock, Tex.) and an analog-digital converter card (PCI-6052E, National Instruments, Austin, Tex.) with 16 bit resolution and 200 Hz sampling rate running Labchart 8.0. […]

[2] = system: swine exposed to 2.5 ATA hyperbaric oxygen for 5.5 hr; test: Experiment 2: heart rate variability (SDNN); assay type: in vivo; details: 2.5 ATA O2 5.5 hr; mean+/−SEM; p=0.0331 vs saline
Description: The swine were prepared for ECG recording as described previously. Briefly, using an electric shaver, ECG areas were prepared bilaterally, posterior to the shoulder, lateral to the vertebrae, at approximately 4-7 cm above ribs 5-7 (bipolar derivation). Another area was prepared 2 cm lateral to the vertebrae on right side, between ribs 12-13. Newly exposed skin was rubbed with isopropyl alcohol. Disposable pre-wired (Grass Technologies/Astro-Med, Inc. Warwick, Mass.) or SF405 (KENDALL MEDI-TRACE™, Tyco Healthcare, Mansfield, Mass.) self-adhesive Ag/AgCl electrodes were placed on the proximal, symmetric sites and the ground electrode was placed at the distal site (between ribs 12-13). […]
Wideband AC amplifiers (Grass, Quincy, Mass.) were used for EEG and ECG recordings; a 0.5-35 Hz and 60 cycle notch filter setting was used. […] Heart rate variability (HRV) was calculated from pre-dive ECG epochs of at least 2 min durations using the Labchart ECG tool suite. […] Above the manually set trigger level the LabChart software looked for maximum values and measured the time interval between peaks (maximal amplitude of R-wave). […] The length of measured periods were: (1) 114.995 sec; peak-to-peak distance 0.750 t 0.0004 sec; 153 peaks; FFT 1.329 Hz=79.74 bpm; and (2) 326.52 sec; peak-to-peak distance 0.750±0.0003; 434 peaks; FFT 1.332 Hz=79.92 bpm. […]

SMILES: C[N+]1(C)[C@@H]2C[C@@H](OC(=O)C(O)(c3cccs3)c3cccs3)C[C@H]1[C@@H]1O[C@@H]12 [Tiotropium, tiotropium bromide]
- change in VC following hyperbaric exposure ([1]; 1st set of measurements): no change
- decrease in IC following hyperbaric exposure ([1]; 1st set of measurements, n=7, p=0.2217, mean ± SEM): 57.14 ± 34.11 mL
- increase in ERV following hyperbaric exposure ([1]; 1st set of measurements, n=7, p=0.6315, mean ± SEM): 57.14+62.65 ml
- increase in VC following hyperbaric exposure ([1]; 2nd set of measurements, n=9, mean ± SEM): 22.22+52.69 ml
- increase in ERV following hyperbaric exposure ([1]; 2nd set of measurements, n=9, p=0.4806, mean ± SEM): 44.44 ± 39.49 mL
- decrease in IC following hyperbaric exposure ([1]; 2nd set of measurements, n=9, p=0.5300, mean ± SEM): 33.33 ± 31.94 mL
- Inspiratory capacity, Saline vs Tiotropium groups ([1]; percent change from baseline, averaged, p=0.266): no significant differences
- Vital Capacity, Saline vs Tiotropium groups ([1]; percent change from baseline, averaged, p=0.325): no significant differences
- Expiratory Reserve Volume, Saline vs Tiotropium groups ([1]; percent change from baseline, averaged, p=0.900): no significant differences
- Post-dive SDNN normalized to the pre-dive SDNN [2]: 103.5+/−15.87
